Tested on: peripheral blood lymphocytes
Test: Lymphocyte depletion assay (peripheral blood T and B cells)
Format: in vivo, BALB/c mice
Conditions: single i.v. dose, 24 hours vs baseline; FTY720 12.9 μg, mRNA 7.5 μg/mouse
Procedure: For in vivo administration, CART formulations were prepared adding 18.75 μg of mRNA (18.75 uL of a 1 mg/mL stock) to 205 uL of PBS (pH 5.5) and to this 26.22 uL of CART (from a 2 mmol/L stock in DMSO) were added and mixed for 20 seconds. A total of 100 uL of this formulation was administered i.v. into the tail vein of each mouse, injecting two mice at a time per each treatment group and resulting in a final mRNA dose of 7.5 ug/mouse. CART formulations were injected immediately after mixing (within 20 s).
Blood was drawn from the submandibular vein of the mice immediately before and 24 hours after treatment with Fluc mRNA-CART complexes prepared and administered as above. In both cases approximately 1 mL of venous blood was collected per mouse into FACS tubes pre-filled with 500 μL of Ca^2+-EDTA. […]
One of the potential benefits of functionalizing an mRNA delivery vehicle with a small molecule is to exploit the biological properties of the small molecule for therapeutic purposes. […] Before treatment, mice were bled to measure the baseline levels of circulating T cells (CD3+) and B cells (B220+) calculated through flow cytometry as a percentage of the total peripheral blood lymphocytes. The mice were then bled 24 hours after treatment and the levels of peripheral T and B lymphocytes were measured again (FIG. 5). […]

## CCCCCCCCc1ccc(CCC(N)(CO)CO)cc1 [FTY720, fingolimod]
  Reduction in the percentage of circulating T cells (CD3+): 84%

— patent US20250381276A1, “SMALL MOLECULE CONJUGATED CHARGE-ALTERING RELEASABLE TRANSPORTERS FOR NUCLEIC ACID DELIVERY” (The Board of Trustees of the Leland Stanford Junior …, priority 2022, published 2025)
